Like-named read-outs stand apart in the source and are kept apart here.
How the values were obtained:
[1] = test system: Erysiphe graminis; experiment: Action against Erysiphe graminis on barley; assay type: in vivo; conditions: 0.02% spray mixture, 10 days
Procedure: Barley plants about 8 cm in height are sprayed with a spray mixture (0.02% of compound of formula I) prepared from a 25% emulsifiable concentrate. After 3-4 hours the plants are dusted with conidia of Erysiphe graminis. The infected barley plants are then stood in a greenhouse at about 22° C. Evaluation of fungus attack is made 10 days later.

[2] = test system: Solanum; experiment: Postemergence herbicidal action (contact herbicide), compounds of formula I, Solanum; assay type: in vivo; parameters: key: 1: plants have not germinated or have completely died off; 2-3: very pronounced action; 4-6: medium action; 7-8: slight action; 9: no action (as untreated controls); conditions: 4 kg a.i./ha, 15 days
Procedure: (§1) The weeds to be tested are sprayed postemergence (in the 4- to 6-leaf stage) with an aqueous dispersion prepared from compounds of formula I formulated as (a) a 10% or (b) a 25% wettable powder or (c) a 25% emulsifiable concentrate, at a rate of application of 4 kg a.i./ha. The plants are kept at 24°-26° C. and 45-60% relative humidity. The test is evaluated 15 days later in accordance with the same rating as used in the preemergence test (Example 19).

[3] = test system: weeds; experiment: Postemergence herbicidal action (contact herbicide), compounds of formula I, overall; assay type: in vivo; conditions: 4 kg a.i./ha, 15 days later
Procedure: as §1

[4] = test system: Sinapis; experiment: Postemergence herbicidal action (contact herbicide), compounds of formula I, Sinapis; assay type: in vivo; parameters: key: 1: plants have not germinated or have completely died off; 2-3: very pronounced action; 4-6: medium action; 7-8: slight action; 9: no action (as untreated controls); conditions: 4 kg a.i./ha, 15 days
Procedure: as §1

[5] = test system: Setaria; experiment: Postemergence herbicidal action (contact herbicide), compounds of formula I, Setaria; assay type: in vivo; conditions: 4 kg a.i./ha, 15 days
Procedure: as §1

[6] = test system: soya bean plants; experiment: Regulation of the growth of soya bean plants; conditions: controls = 100%
[7] = test system: wheat; experiment: Stimulation of root growth in wheat (plastic boxes, 30 days); assay type: in vivo; conditions: for root dry weight expressed as % of controls / root length expressed as % of controls: 30 days, controls = 100%
Procedure: (§2) Compounds of formula I are employed in the form of aqueous dispersions prepared from a 25% wettable powder. The test is carried out with seeds which are sown in plastic boxes measuring 5×35×60 cm and filled with soil (15 seeds per box). The seeds are treated before sowing at rates of application of 45-500 mg per kg of seeds. The boxes are kept under controlled conditions in a climatic chamber. After 30 days, the plants are carefully washed with water to remove the soil and the length and dry weight of the roots are assessed.

[8] = test system: mould fungi; experiment: Action against mould fungus on moist maize; assay type: in vivo, mixed population of mould fungi; conditions: for reduction of fungus attack compared with untreated controls: 0.06% a.i.
Text: Dry maize grains (portions of 80 g each) are thoroughly mixed in sealable plastic beakers with an aqueous suspension prepared from a 25% wettable powder formulation of a compound of formula I. The application is so adjusted as to give a concentration of 0.06% of active ingredient, based on the weight of dry maize. A moistened slip of paper provides for a saturated humid atmosphere in the beakers which are filled with maize and then sealed. A mixed population of mould fungi develops spontaneously after incubation for 2-3 weeks at about 20° C. in the maize samples which have been treated only with water. The effectiveness of the test compounds is assessed by evaluating the degree of fungus development after 3 weeks.
A visual assessment is made after each month according to the same criteria as specified above.

[9] = test system: cotton; experiment: Stimulation of root growth in cotton (plastic boxes, 30 days); assay type: in vivo; conditions: for root dry weight expressed as % of controls / root length expressed as % controls: 30 days, controls = 100%
Procedure: as §2

[10] = test system: wheat; experiment: Stimulation of root growth in wheat (plastic cylinders, 10 days); assay type: in vivo; conditions: seed treatment 4-130 mg per kg of seeds or soil spray 0.3 to 3 kg/ha; after 10 days
Procedure: Compounds of formula I are applied in the form of aqueous dispersions prepared from a 25% wettable powder. The test is carried out with seeds which are sown in plastic cylinders measuring 5×30 cm and filled with soil (10 seeds per cylinder). The seeds are (a) treated before sowing at rates of application of 4-130 mg per kg of seeds or (b) are untreated and the soil is sprayed with a dispersion of the active ingredient at rates of application of 0.3 to 3 kg/ha. The cylinders are kept under controlled conditions in a climatic chamber. After 10 days, the seedlings are carefully washed with water to remove the soil and the length and dry weight of the roots are assessed.

[11] = test system: Xanthomonas oryzae; assay type: in vivo; conditions: for bactericidal activity: based on the volume of the soil
[12] = test system: Xanthomonas oryzae; assay type: in vivo; conditions: for bactericidal properties in words: residual-protective action
[13] = test system: Sinapis; experiment: Preemergence herbicidal action (inhibition of germination), Sinapis; assay type: in vivo; conditions: 4 kg a.i./ha, after 3 weeks
Procedure: (§3) In a greenhouse, immediately after sowing seeds of test plants in seed dishes, the surface of the soil is treated with an aqueous dispersion prepared from a 10% wettable powder formulation of test compounds of formula I. Concentrations of 4 kg of active ingredient per hectare are used. The seed dishes are kept in the greenhouse at 22°-25° C. and 50-70% relative humidity, and the test is evaluated after 3 weeks in accordance with the following rating: […]

[14] = test system: Stellaria; experiment: Preemergence herbicidal action (inhibition of germination), Stellaria; assay type: in vivo; parameters: key to preemergence herbicidal action rating: 1: plants have not germinated or have completely died off; 2-3: very pronounced action; 4-6: medium action; 7-8: slight action; 9: no action (as untreated controls); conditions: 4 kg a.i./ha, after 3 weeks
Procedure: as §3

[15] = test system: Setaria; experiment: Preemergence herbicidal action (inhibition of germination), Setaria; assay type: in vivo; parameters: key to preemergence herbicidal action rating: 1: plants have not germinated or have completely died off; 2-3: very pronounced action; 4-6: medium action; 7-8: slight action; 9: no action (as untreated controls); conditions: 4 kg a.i./ha, after 3 weeks
Procedure: as §3

[16] = test system: Phaseolus; experiment: Postemergence herbicidal action (contact herbicide), compounds of formula II, Phaseolus; assay type: in vivo; parameters: key to postemergence herbicidal action rating: 1: plants completely withered; 2-3: very pronounced action; 4-6: medium action; 7-8: insignificant action; 9: no action (as untreated controls); conditions: 4 kg a.i./ha, 15 days; for postemergence herbicidal action rating: 25% wettable powder; for herbicidal action in words: postemergence
Procedure: (§4) The plants for testing are sprayed postemergence (in the 4- to 6-leaf stage) at a concentration of 4 kg a.i./ha with an aqueous dispersion prepared from a compound of formula II formulated as a 25% wettable powder. The plants are then kept at 24°-26° C. and 45-60% relative humidity. The test is evaluated 15 days later according to the following rating: […]

[17] = test system: Solanum; experiment: Postemergence herbicidal action (contact herbicide), compounds of formula II, Solanum; assay type: in vivo; parameters: key to postemergence herbicidal action rating: 1: plants completely withered; 2-3: very pronounced action; 4-6: medium action; 7-8: insignificant action; 9: no action (as untreated controls); conditions: 4 kg a.i./ha, 15 days; for postemergence herbicidal action rating: 25% wettable powder; for herbicidal action in words: postemergence
Procedure: as §4

[18] = formulation (c) 25% emulsifiable concentrate
[19] = seed treatment 45-500 mg per kg of seeds, after 30 days
[20] = formulation (b) 25% wettable powder
[21] = formulation (a) 10% wettable powder

## COP(=O)(OC)c1cc(Oc2ccc(C(F)(F)F)cn2)ccc1[N+](=O)[O-] [Compound 1]
[1]; 25% emulsifiable concentrate, untreated = 100% attack
  reduction of fungus attack compared with untreated controls: 80-95%
[1]
  effectiveness in words: particularly effective
[2]; [18]
  postemergence herbicidal action rating: 4
[3]
  postemergence effectiveness in words: very effective
[4]; [18]
  postemergence herbicidal action rating: 3
[5]; [18]
  postemergence herbicidal action rating: 4

## O=[N+]([O-])c1ccc(Oc2ccc(C(F)(F)F)cn2)cc1P(=O)(O)O [Compound 3]
[6]; 0.08 kg a.i./ha
  Weight of pods as % of controls: 119 % of controls
  no. of pods as % of controls: 107 % of controls
[6]; 0.40 kg a.i./ha
  Weight of pods as % of controls: 119 % of controls
  no. of pods as % of controls: 119 % of controls
[6]; 0.80 kg a.i./ha
  Weight of pods as % of controls: 135 % of controls
  no. of pods as % of controls: 109 % of controls
[6]; 4.00 kg a.i./ha
  Weight of pods as % of controls: 108 % of controls
  no. of pods as % of controls: 98 % of controls
[7]; 45 mg a.i./kg of seeds
  root dry weight expressed as % of controls: 105 % of controls
  root length expressed as % of controls: 98 % of controls
[7]; 150 mg a.i./kg of seeds
  root dry weight expressed as % of controls: 112 % of controls
  root length expressed as % of controls: 107 % of controls
[7]; 500 mg a.i./kg of seeds
  root dry weight expressed as % of controls: 110 % of controls
  root length expressed as % of controls: 107 % of controls
[7]; [19]
  root growth stimulation effectiveness in words: every effective
[8]; after 3 weeks
  reduction of fungus attack compared with untreated controls: 80-95%
[8]; after 3 weeks and a further month
  reduction of fungus attack compared with untreated controls: 80-95%
[8]; after 3 weeks, a further month and yet a further month
  reduction of fungus attack compared with untreated controls: 50-80%
[8]; 0.06% of active ingredient on dry maize
  fungicidal activity in words: particularly pronounced fungicidal activity
[9]; 45 mg a.i./kg of seeds
  root dry weight expressed as % of controls: 105 % of controls
  root length expressed as % controls: 122 % controls
[9]; 150 mg a.i./kg of seeds
  root dry weight expressed as % of controls: 97 % of controls
  root length expressed as % controls: 111 % controls
[9]; 500 mg a.i./kg of seeds
  root dry weight expressed as % of controls: 129 % of controls
  root length expressed as % controls: 122 % controls
[9]; [19]
  root growth stimulation effectiveness in words: every effective
[10]
  root growth stimulation effectiveness in words: very effective

## COP(=O)(OC)c1cc(Oc2ncc(Cl)cc2Cl)ccc1[N+](=O)[O-] [Compound 4, Dimethyl 2-nitro-5-(3',5'-dichloro-2'-pyridyloxy)phenylphosphonate]
[11]; concentration of 0.0006%
  bactericidal activity: 50-80%
[11]; concentration of 0.006%
  bactericidal activity: over 95%
[11]; systemic action
  bactericidal activity in words: pronounced bactericidal activity
[2]; [20]
  postemergence herbicidal action rating: 2
[3]
  postemergence effectiveness in words: very effective
[12]; concentration of 0.0006%
  action: 80-95%
[12]; concentration of 0.006%
  action: over 95%
[12]
  bactericidal properties in words: pronounced bactericidal properties
[4]; [20]
  postemergence herbicidal action rating: 3
[5]; [20]
  postemergence herbicidal action rating: 3

## COP(=O)(OC)c1cc(Oc2ncc(C(F)(F)F)cc2Cl)ccc1[N+](=O)[O-] [Compound 6, Dimethyl 2-nitro-5-(3'-chloro-5'-trifluoromethyl-2'-pyridyloxy)phenylphosphonate]
[2]; [21]
  postemergence herbicidal action rating: 1
[3]
  postemergence effectiveness in words: very effective
[13]; 10% wettable powder
  preemergence herbicidal action rating: 2
[13]
  preemergence effectiveness in words: very effective
[14]; 10% wettable powder
  preemergence herbicidal action rating: 1
[14]
  preemergence effectiveness in words: very effective
[12]; concentration of 0.02%
  action: over 95%
[12]
  bactericidal properties in words: pronounced bactericidal properties
[4]; [21]
  postemergence herbicidal action rating: 1
[15]; 10% wettable powder
  preemergence herbicidal action rating: 1
[15]
  preemergence effectiveness in words: very effective
[5]; [21]
  postemergence herbicidal action rating: 3

## CCOP(=O)(OCC)c1cc(Oc2ncc(C(F)(F)F)cc2Cl)ccc1[N+](=O)[O-] [Compound 7, Diethyl 2-nitro-5-(3'-chloro-5'-trifluoromethyl-2'-pyridyloxy)phenylphosphonate]
[2]; [18]
  postemergence herbicidal action rating: 1
[3]
  postemergence effectiveness in words: very effective
[4]; [18]
  postemergence herbicidal action rating: 2
[5]; [18]
  postemergence herbicidal action rating: 3

## CCOP(=O)(OCC)c1cc(Oc2ncc(Cl)cc2Cl)ccc1[N+](=O)[O-] [Compound 9, Diethyl 2-nitro-5-(3',5'-dichloro-2'-pyridyloxy)phenylphosphonate]
[2]; [18]
  postemergence herbicidal action rating: 1
[3]
  postemergence effectiveness in words: very effective
[4]; [18]
  postemergence herbicidal action rating: 2
[5]; [18]
  postemergence herbicidal action rating: 2

## O=[N+]([O-])c1ccc(Oc2ncc(C(F)(F)F)cc2Cl)cc1[N+](=O)[O-] [II-2, 1,2-dinitro-4-(3'-chloro-5'-trifluoromethyl-2'-pyridyloxy)benzene]
[16]
  postemergence herbicidal action rating: 1
  herbicidal action in words: excellent herbicidal action
[17]
  postemergence herbicidal action rating: 1
  herbicidal action in words: excellent herbicidal action

## O=[N+]([O-])c1ccc(Oc2ccc(C(F)(F)F)cn2)cc1[N+](=O)[O-] [II-3, 1,2-dinitro-4-(5'-trifluoromethyl-2'-pyridyloxy)benzene]
[16]
  postemergence herbicidal action rating: 1
  herbicidal action in words: excellent herbicidal action
[17]
  postemergence herbicidal action rating: 3
  herbicidal action in words: excellent herbicidal action

— patent US4451284A, “Derivatives of 2-nitro-4- or -5-pyridyloxyphenylphosphonic acid, the preparation thereof, the use thereof as herbicides and/or plant growth regulators” (Ciba-Geigy Corporation, priority 1981, dated 1984)
